Experimental data as given in patent US20250388605A1, “HETEROBIFUNCTIONAL COMPOUNDS AND METHODS OF TREATING DISEASE” (Halda Therapeutics OpCo, Inc., priority 2022, published 2025).

What was measured:
[1] = test system: T-Rex 293 cell line SC3 cells lacking increased expression of androgen receptor protein; assay: Cellular growth inhibition, T-Rex 293 SC3 cells without doxycycline (no increased androgen receptor expression), CellTiter-Glo; assay type: cell-based; conditions: T-Rex 293 SC3 cells not exposed to doxycycline (no increased androgen receptor expression), 72 hours
Experimental: (§1) The following types of cells were prepared for this experiment: (i) a T-Rex 293 cell line having increased expression of androgen receptor protein due to exposure to doxycycline and (ii) a T-Rex 293 cell line lacking increased expression of androgen receptor protein. Ability of the test compounds to inhibit proliferation of the foregoing cell types was evaluated according to the procedures set forth below.
(§2) The doxycycline-inducible androgen receptor protein expressing cell line was established using the following protocol: T-Rex 293 cells were purchased from Invitrogen (Cat #R71007) and transfected using Lipofectamine 2000 with the wild-type androgen receptor protein sequence cloned into the pcDNA4/TO vector. Transfected cells were selected using 400 μg/mL Zeocin (Invitrogen Cat #R25001). Following selection, single clones were raised and maintained in Dulbecco's Modified Eagle Medium (DMEM) supplemented with 10% w/w Tetracycline-free fetal bovine serum (FBS) and 250 μg/mL Zeocin. Clones were analyzed for expression of androgen receptor protein in the presence and absence of 10 ng/mL doxycycline (Sigma Cat #D9891), and a single doxycycline-inducible clone (hereinafter “SC3”) was selected for use in downstream assays.
(§3) The SC3 cells were seeded on poly-D-lysine coated, black clear-bottom 384-well plates at 2500/well, in 25 μL Phenol Red Free Dulbecco's Modified Eagle Medium (DMEM) supplemented with 10% w/w charcoal-dextran treated fetal bovine serum (FBS) and 1% w/w pen-strep, with or without 10 ng/mL doxycycline. Pen-Strep is a commercially available mixture of penicillin G and streptomycin, which is used in mammalian cell culture media to prevent bacterial contamination. Phenol Red Free Dulbecco's Modified Eagle Medium (DMEM) supplemented with 10% w/w charcoal-dextran treated fetal bovine serum (FBS) and 1% w/w pen-strep, with or without 10 ng/mL doxycycline is herein referred to as Treatment Medium. Following seeding of cells in the plates, the plates were spun at 300×g for 30 seconds, then equilibrated to room temperature for 30 minutes, and then deposited in a humidified tissue culture incubator maintained at 37° C. with 5% CO2.
(§4) At 24 hours after seeding of the cells, dilutions of test compound were prepared in DMSO and dissolved in Treatment Medium, to achieve a final DMSO concentration of 0.5% w/w, thereby providing the Test Compound Solution. A 25 μL aliquot of the Test Compound Solution was added to cells in the well plates. An equal volume of a solution containing DMSO and Treatment Medium was used as a negative control. Following treatment of cells with Test Compound Solution or said equal volume of a solution containing DMSO and Treatment Medium, the plates were spun at 300×g for 30 seconds, and then left in an incubator for 72 hours.
(§5) At the end of the treatment duration, cell viability was quantified with CellTiter-Glo 2.0 reagent (Promega Cat #G9243). For this purpose, plates were equilibrated to room temperature for 30 minutes, and then 25 μL of CellTiter-Glo 2.0 reagent was added to cells in the plate wells. Plates were then agitated on a shaker for two minutes at 500 rpm and subsequently incubated at room temperature for 10 minutes. Following incubation, the plates were spun at 3000×g for 30 seconds, then sealed with an optical adhesive cover, and luminescence readings were measured with an EnVision Plate Reader.
(§6) Data was normalized using zero luminescence for baseline. A four-parameter non-linear regression curve fit was applied to dose-response data in GraphPad Prism data analysis software to determine the half-maximal growth inhibitory concentration (GI50) for each test compound.

[2] = test system: T-Rex 293 cell line SC3 cells having increased expression of androgen receptor protein due to exposure to doxycycline; assay: Cellular growth inhibition, T-Rex 293 SC3 cells with doxycycline (increased androgen receptor expression), CellTiter-Glo; assay type: cell-based; conditions: T-Rex 293 SC3 cells with 10 ng/mL doxycycline (increased androgen receptor expression), 72 hours, CellTiter-Glo 2.0
Experimental: as §1, §2, §3, §4, §5, §6

VCaP cells = assay: Cellular growth inhibition assay for VCaP cells, CellTiter-Glo; assay type: cell-based, human; conditions: 72 hours
Experimental: VCaP cells were purchased from American Type Cell Culture (ATCC Cat #CRL2876) and then seeded on poly-D-lysine coated, black clear-bottom 384-well plates at 5000/well in 25 μL Dulbecco's Modified Eagle Medium (DMEM) supplemented with 10% w/w Fetal bovine serum (FBS) and 1% w/w Pen-Strep. Pen-Strep is a commercially available mixture of penicillin G and streptomycin, which is used in mammalian cell culture media to prevent bacterial contamination. Dulbecco's Modified Eagle Medium (DMEM) supplemented with 10% w/w fetal bovine serum (FBS) and 1% w/w Pen-Strep is herein referred to as Treatment Medium. Following seeding of cells in the plates, the plates were spun at 300×g for 30 seconds, then equilibrated to room temperature for 30 minutes, and then deposited in a humidified tissue culture incubator maintained at 37° C. with 5% CO2.
as §4, §5, §6

Structure (SMILES) | GI50 [1] | GI50 [2] | GI50 (VCaP cells; Homo sapiens) | GI50 (VCaP cells)
CCS(=O)(=O)Nc1ccc(Oc2cccc(OCCOCCCOC3CCN(c4ncc(C(=O)N[C@H]5C(C)(C)[C@H](Oc6ccc(C#N)c(Cl)c6)C5(C)C)cn4)CC3)c2)c(-c2cn(C)c(=O)c3[nH]ccc23)c1 [Compound I-16] | < 500 nM | < 500 nM | < 500 nM | –
Cn1cc(-c2cc(NS(=O)(=O)C3CC3)ccc2Oc2cccc(CCOC3CCN(c4ncc(C(=O)N[C@H]5C(C)(C)[C@H](Oc6ccc(C#N)c(Cl)c6)C5(C)C)cn4)CC3)c2)c2cc[nH]c2c1=O [Compound I-145] | > 3000 nM | < 500 nM | – | 1500 to 3000 nM
CCS(=O)(=O)Nc1ccc(Oc2cccc(N(C)C3CC(C4CCN(c5ncc(C(=O)N[C@H]6C(C)(C)[C@H](Oc7ccc(C#N)c(Cl)c7)C6(C)C)cn5)CC4)C3)c2)c(-c2cn(C)c(=O)c3[nH]ccc23)c1 (stereo partly drawn) [Compound I-172] | > 3000 nM | < 500 nM | – | > 3000 nM
CCS(=O)(=O)Nc1ccc(Oc2cc(F)cc(OCCOC3CCN(c4ncc(C(=O)N[C@H]5C(C)(C)[C@H](Oc6ccc(C#N)c(Cl)c6)C5(C)C)cn4)CC3)c2)c(-c2cn(C)c(=O)c3[nH]ccc23)c1 [Compound I-127] | > 3000 nM | < 500 nM | < 500 nM | –
Cn1cc(-c2cc(NS(=O)(=O)C(F)(F)F)ccc2Oc2cccc(OCCOC3CCN(c4ncc(C(=O)N[C@H]5C(C)(C)[C@H](Oc6ccc(C#N)c(Cl)c6)C5(C)C)cn4)CC3)c2F)c2cc[nH]c2c1=O [Compound I-163, N-[3-(3-chloro-4-cyano-phenoxy)-2,2,4,4-tetramethyl-cyclobutyl]-2-[4-[2-[2-fluoro-3-[2-(6-methyl-7-oxo-1H-pyrrolo[2,3-c]pyridin-4-yl)-4-(trifluoromethylsulfonylamino)phenoxy]phenoxy]ethoxy]-1-piperidyl]pyrimidine-5-carboxamide] | > 3000 nM | < 500 nM | 500 to 1500 nM | –
CCS(=O)(=O)Nc1ccc(Oc2cc(OCCOC3CCN(c4ncc(C(=O)N[C@H]5C(C)(C)[C@H](Oc6ccc(C#N)c(Cl)c6)C5(C)C)cn4)CC3)ccc2F)c(-c2cn(C)c(=O)c3[nH]ccc23)c1 [Compound I-150] | > 3000 nM | < 500 nM | < 500 nM | –
Cn1cc(-c2cc(NS(=O)(=O)C3CC3)ccc2Oc2cccc(OCCC3CCN(c4ncc(C(=O)N[C@H]5C(C)(C)[C@H](Oc6ccc(C#N)c(Cl)c6)C5(C)C)cn4)CC3)c2)c2cc[nH]c2c1=O [Compound I-130] | > 3000 nM | < 500 nM | – | < 500 nM
CCS(=O)(=O)Nc1ccc(Oc2cccc(NCCN(C)C3CCN(c4ncc(C(=O)N[C@H]5C(C)(C)[C@H](Oc6ccc(C#N)c(Cl)c6)C5(C)C)cn4)CC3)c2)c(-c2cn(C)c(=O)c3[nH]ccc23)c1 [Compound I-173] | > 3000 nM | 500 to 1500 nM | < 500 nM | –
CCS(=O)(=O)Nc1ccc(Oc2cccc(N(C)CCN(C)C3CCN(c4ncc(C(=O)N[C@H]5C(C)(C)[C@H](Oc6ccc(C#N)c(Cl)c6)C5(C)C)cn4)CC3)c2)c(-c2cn(C)c(=O)c3[nH]ccc23)c1 [Compound I-86] | < 500 nM | < 500 nM | < 500 nM | –
CCS(=O)(=O)Nc1ccc(Oc2cccc(OCCNC3CCN(c4ncc(C(=O)N[C@H]5C(C)(C)[C@H](Oc6ccc(C#N)c(Cl)c6)C5(C)C)cn4)CC3)c2)c(-c2cn(C)c(=O)c3[nH]ccc23)c1 [Compound I-85] | 500 to 1500 nM | < 500 nM | < 500 nM | –
CCS(=O)(=O)Nc1ccc(Oc2cccc(OCCCN3CCN(CC4CCN(c5ncc(C(=O)N[C@H]6C(C)(C)[C@H](Oc7ccc(C#N)c(Cl)c7)C6(C)C)cn5)CC4)CC3)c2)c(-c2cn(C)c(=O)c3[nH]ccc23)c1 [Compound I-33] | < 500 nM | < 500 nM | < 500 nM | –
CCS(=O)(=O)Cc1ccc(Oc2cccc(OCCOC3CCN(c4ccc(C(=O)N[C@H]5C(C)(C)[C@H](Oc6ccc(C#N)c(Cl)c6)C5(C)C)nn4)CC3)c2F)c(-c2cn(C)c(=O)c3[nH]ccc23)c1 [Compound I-167] | > 3000 nM | < 500 nM | < 500 nM | –
CCS(=O)(=O)Nc1ccc(-n2ccc(OCCOC3CCN(c4ncc(C(=O)NC5C(C)(C)C(Oc6ccc(C#N)c(Cl)c6)C5(C)C)cn4)CC3)cc2=O)c(-c2cn(C)c(=O)c3[nH]ccc23)c1 (stereo not drawn) [Compound I-112, N-[3-(3-chloro-4-cyano-phenoxy)-2,2,4,4-tetramethyl-cyclobutyl]-2-[4-[2-[[1-[4-(ethylsulfonylamino)-2-(6-methyl-7-oxo-1H-pyrrolo[2,3-c]pyridin-4-yl)phenyl]-2-oxo-4-pyridyl]oxy]ethoxy]-1-piperidyl]pyrimidine-5-carboxamide] | > 3000 nM | < 500 nM | > 3000 nM | –
CCS(=O)(=O)Nc1cnc(Oc2cccc(OCCOC3CCN(c4cnc(C(=O)N[C@H]5C(C)(C)[C@H](Oc6ccc(C#N)c(Cl)c6)C5(C)C)cn4)CC3)c2)c(-c2cn(C)c(=O)c3[nH]ccc23)c1 [Compound I-46] | > 3000 nM | < 500 nM | < 500 nM | –
CCS(=O)(=O)Nc1ccc(Oc2cccc(OCCN(C)C3CCN(c4ncc(C(=O)N[C@H]5C(C)(C)[C@H](Oc6ccc(C#N)c(Cl)c6)C5(C)C)cn4)CC3)c2)c(-c2cn(C)c(=O)c3[nH]ccc23)c1 [Compound I-87] | < 500 nM | < 500 nM | < 500 nM | –
CCS(=O)(=O)Nc1ccc(Oc2cccc(CCCOC3CCN(c4ncc(C(=O)N[C@H]5C(C)(C)[C@H](Oc6ccc(C#N)c(Cl)c6)C5(C)C)cn4)CC3)c2)c(-c2cn(C)c(=O)c3[nH]ccc23)c1 [Compound I-20] | < 500 nM | < 500 nM | < 500 nM | –
CCS(=O)(=O)Nc1ccc(Oc2cccc(OCCCCN3CCN(CC4CCN(c5ncc(C(=O)N[C@H]6C(C)(C)[C@H](Oc7ccc(C#N)c(Cl)c7)C6(C)C)cn5)CC4)CC3)c2)c(-c2cn(C)c(=O)c3[nH]ccc23)c1 [Compound I-34] | < 500 nM | < 500 nM | < 500 nM | –
CCS(=O)(=O)Nc1ccc(Oc2cc(OCCOC3CCN(c4ncc(C(=O)N[C@H]5C(C)(C)[C@H](Oc6ccc(C#N)c(Cl)c6)C5(C)C)cn4)CC3)ccn2)c(-c2cn(C)c(=O)c3[nH]ccc23)c1 [Compound I-111] | > 3000 nM | < 500 nM | < 500 nM | –
CCS(=O)(=O)c1ccc(Oc2cccc(CCCOC3CCN(c4ncc(C(=O)N[C@H]5C(C)(C)[C@H](Oc6ccc(C#N)c(Cl)c6)C5(C)C)cn4)CC3)c2F)c(-c2cn(C)c(=O)c3[nH]ccc23)c1 [Compound I-176] | < 500 nM | < 500 nM | < 500 nM | –
CCS(=O)(=O)Nc1ccc(Oc2cccc(OCCCOC3CCN(c4ncc(C(=O)N[C@H]5C(C)(C)[C@H](Oc6ccc(C#N)c(Cl)c6)C5(C)C)cn4)CC3)c2)c(-c2cn(C)c(=O)c3[nH]ccc23)c1 [Compound I-17] | < 500 nM | < 500 nM | < 500 nM | –
CCS(=O)(=O)Nc1ccc(Oc2ccc(F)c(OCCOC3CCN(c4ncc(C(=O)N[C@H]5C(C)(C)[C@H](Oc6ccc(C#N)c(Cl)c6)C5(C)C)cn4)CC3)c2)c(-c2cn(C)c(=O)c3[nH]ccc23)c1 [Compound I-128] | > 3000 nM | < 500 nM | < 500 nM | –
